Experimental data published in article PMC5502055, “Phase II study of lanreotide autogel in Japanese patients with unresectable or metastatic well-differentiated neuroendocrine tumors” (Investigational New Drugs, 2017).

Tested on: Japanese patients with grade (G) 1/G2 NET
Assay: Phase II and extension study: anti-tumor efficacy by RECIST ver. 1.1 (CBR, PFS, OS, ORR, sum of target lesion diameters)
Format: in vivo, human
Description: A phase II, multicenter, single-arm study was conducted at 10 sites in Japan. Patients were treated via deep subcutaneous (buttocks) injection of lanreotide at a dosage of 120 mg once every 4 weeks for a 48-week period. Patients who completed the phase II study were enrolled in an additional multicenter single-arm extension study that used the same dosage and injection methods and involved 7 of the 10 initial sites.
Japanese patients with G1 or 2 (mild/moderate malignancy) NET and an age of ≥20 years were selected for the phase II study according to the World Health Organization (WHO) 2010 classification except for those whose primary tumors were located in the lungs, bronchi, or thymus (according to the WHO 2004 classification). Other inclusion criteria were the following: metastatic disease and/or a locally advanced inoperable tumor, or refusal of surgery, and target lesions based on the Response Evaluation Criteria in Solid Tumors (RECIST) ver.1.1, and a score of 0–2 on the WHO performance status. The exclusion criteria are described in the Electronic Supplementary Material. These criteria allowed the enrolment of the same target population as that of the CLARINET study: patients with G1 or 2 NET with primary tumor sites in the pancreas, midgut, hindgut, or unknown; non-functional NET except gastrinomas adequately controlled by proton pump inhibitors for 4 months or longer; and absence of multiple endocrine neoplasia.
The primary endpoint was the clinical benefit rate (CBR) at 24 weeks after the first injection, which served to indicate and confirm the anti-tumor effects of lanreotide. The CBR was defined as the percentage of patients in the analysis set who achieved a complete response or partial response (PR) as the best overall response, or those who maintained stable disease (SD) over 24 weeks after the first injection by central review. Secondary efficacy endpoints were progression-free survival (PFS), overall survival (OS), objective response rate (ORR), and the percent change from baseline in the sum of the diameters of target lesion from baseline. The PFS was defined as the time from the first injection until progressive disease (PD) or death. Regarding tumor lesion imaging ≥4 weeks before the baseline, the investigators evaluated computed tomography (CT) or magnetic resonance imaging (MRI) data based on the RECIST (ver. 1.1). To evaluate anti-tumor effects after baseline, CT or MRI data were evaluated centrally by an independent third party based on the RECIST (ver. 1.1). During the study period, images of each patient were determined using the same method (CT or MRI), according to the standardized procedure at each site. CT or MRI was conducted every 12 weeks from the first injection. Regarding quality of life (QOL), patients completed the European Organization for Research and Treatment of Cancer (EORTC) QOL questionnaire (QLQ)-C30 (ver. 3.0) every 12 weeks during the 48 -week period after the first injection and every 24 weeks thereafter.
Full analysis set (FAS) and CLARINET-like FAS which was satisfied eligibility criteria of the CLARINET study were used for efficacy analysis. Safety analysis set which included patients who had received the study drug at least once was used for safety analysis. Per protocol set (PPS) was used for pharmacokinetic analysis.
In the primary analysis, the CBR point estimate at 24 weeks after the first injection and an exact F distribution-based 95% confidence interval (CI) were calculated. The CBR was selected as the primary endpoint, because maintaining SD was deemed beneficial and clinically meaningful for NET patients. In the secondary analysis, Kaplan–Meier curves of PFS and OS were prepared, and median values and 95% CIs were calculated. The ORRs at 24, 48, and 60 weeks after the first injection were also calculated. […]

[1] = FAS n=28, printed as decreased by

**Q.** Which results are given for `CC(C)[C@@H]1NC(=O)[C@H](CCCCN)NC(=O)[C@@H](Cc2c[nH]c3ccccc23)NC(=O)[C@H](Cc2ccc(O)cc2)NC(=O)[C@@H](NC(=O)[C@H](N)Cc2ccc3ccccc3c2)CSSC[C@@H](C(=O)N[C@H](C(N)=O)[C@@H](C)O)NC1=O` [lanreotide]?
**A.** clinical benefit rate (CBR) at 24 weeks after the first injection (120 mg deep s.c. every 4 weeks, full analysis set, 18/28 patients, 95% CI 44.1%, 81.4%, central review): 64.3%; CBR at 24 weeks after the first injection (CLARINET-like FAS, 15/22 patients, 95% CI 45.1%, 86.1%): 68.2%; median PFS (FAS n=28, Kaplan-Meier): 9.1 months; median PFS (FAS n=28, Kaplan-Meier, 95% CI 24.1, 53.1 weeks): 36.3 weeks; percentage change from baseline in sum of diameters of target lesion at best time point, mean ± SD (decrease) [1]: 3.6 ± 21.3%; percentage change from baseline in sum of diameters of target lesion at best time point, minimum value (decrease) [1]: 58.5%; percentage change from baseline in sum of diameters of target lesion at best time point, maximum value (increase) (FAS n=28, printed as increased by): 53.4%; CBR Week 24 (FAS subgroup Age (years) >65, 7/12): 58.3 (7/12) %; Median time PFS (FAS subgroup Age (years) >65, N=12, median (95% CI)): 36.64 weeks; CBR Week 24 (FAS subgroup Age (years) ≤65, 11/16): 68.8 (11/16) %; Median time PFS (FAS subgroup Age (years) ≤65, N=16, median (95% CI)): 36.29 (12.29, 53.14) weeks; CBR Week 24 (FAS subgroup Baseline TGR (%/month) <10, 10/13): 76.9 (10/13) %; Median time PFS (FAS subgroup Baseline TGR (%/month) <10, N=13, median (95% CI)): 59.43 weeks; CBR Week 24 (FAS subgroup Baseline TGR (%/month) ≥10, 8/15): 53.3 (8/15) %; Median time PFS (FAS subgroup Baseline TGR (%/month) ≥10, N=15, median (95% CI)): 35.29 (12.14, 37.14) weeks; CBR Week 24 (FAS subgroup Grade of tumor Grade 1, 5/9): 55.6 (5/9) %; CBR Week 24 (FAS subgroup Grade of tumor Grade 2, 13/19): 68.4 (13/19) %; Median time PFS (FAS subgroup Grade of tumor Grade 2, N=19, median (95% CI)): 36.29 (21.29, 49.14) weeks; CBR Week 24 (FAS subgroup Hepatic tumor load (%) >10 and ≤25, 4/6): 66.7 (4/6) %; Median time PFS (FAS subgroup Hepatic tumor load (%) >10 and ≤25, N=6, median (95% CI)): 35.79 weeks; CBR Week 24 (FAS subgroup Hepatic tumor load (%) >25 and ≤50, 1/3): 33.3 (1/3) %; Median time PFS (FAS subgroup Hepatic tumor load (%) >25 and ≤50, N=3, median (95% CI)): 25.14 (24.14, 37.14) weeks; CBR Week 24 (FAS subgroup Hepatic tumor load (%) >50, 1/1): 100.0 (1/1) %; CBR Week 24 (FAS subgroup Hepatic tumor load (%) ≥0 and ≤10, 12/18): 66.7 (12/18) %; Median time PFS (FAS subgroup Hepatic tumor load (%) ≥0 and ≤10, N=18, median (95% CI)): 36.36 (21.29, 59.43) weeks; CBR Week 24 (FAS subgroup Ki67 index (%) >2 and ≤5, 5/8): 62.5 (5/8) %; Median time PFS (FAS subgroup Ki67 index (%) >2 and ≤5, N=8, median (95% CI)): 42.72 weeks; CBR Week 24 (FAS subgroup Ki67 index (%) >5 and <10, 8/9): 88.9 (8/9) %; Median time PFS (FAS subgroup Ki67 index (%) >5 and <10, N=9, median (95% CI)): 36.29 (21.29, 53.14) weeks; CBR Week 24 (FAS subgroup Ki67 index (%) Unknown, 0/1): 0.0 (0/1) %; Median time PFS (FAS subgroup Ki67 index (%) Unknown, N=1, 95% CI NC): 12.14 weeks; CBR Week 24 (FAS subgroup Ki67 index (%) ≤ 2, 5/8): 62.5 (5/8) %; CBR Week 24 (FAS subgroup Ki67 index (%) ≥10 and <20, 0/2): 0.0 (0/2) %; Median time PFS (FAS subgroup Ki67 index (%) ≥10 and <20, N=2, median (95% CI)): 12.07 (12.00, 12.14) weeks; CBR Week 24 (FAS subgroup Sex Female, 6/9): 66.7 (6/9) %; Median time PFS (FAS subgroup Sex Female, N=9, median (95% CI)): 53.14 weeks; CBR Week 24 (FAS subgroup Sex Male, 12/19): 63.2 (12/19) %; Median time PFS (FAS subgroup Sex Male, N=19, median (95% CI)): 36.14 (12.29, 49.14) weeks; CBR Week 24 (FAS subgroup primary tumor site Foregut (except for pancreas), 0/1): 0.0 (0/1) %; Median time PFS (FAS subgroup primary tumor site Foregut (except for pancreas), N=1, 95% CI NC): 12.00 weeks; CBR Week 24 (FAS subgroup primary tumor site Hindgut, 2/8): 25.0 (2/8) %; Median time PFS (FAS subgroup primary tumor site Hindgut, N=8, median (95% CI)): 22.65 (12.14, 49.14) weeks; CBR Week 24 (FAS subgroup primary tumor site Midgut, 2/2): 100.0 (2/2) %; CBR Week 24 (FAS subgroup primary tumor site Other/ Unknown, 4/5): 80.0 (4/5) %; Median time PFS (FAS subgroup primary tumor site Other/ Unknown, N=5, median (95% CI)): 36.14 weeks; CBR Week 24 (FAS subgroup primary tumor site Pancreas, 10/12): 83.3 (10/12) %; Median time PFS (FAS subgroup primary tumor site Pancreas, N=12, median (95% CI)): 36.79 (24.14, 59.43) weeks; CBR Week 24 (FAS subgroup prior treatment for NET Absent, 6/6): 100.0 (6/6) %; CBR Week 24 (FAS subgroup prior treatment for NET Present, 12/22): 54.5 (12/22) %; Median time PFS (FAS subgroup prior treatment for NET Present, N=22, median (95% CI)): 36.22 (12.29, 49.14) weeks; CBR Week 24 (FAS subgroup progressive disease at baseline Absent, 13/17): 76.5% (13/17); Median time PFS (FAS subgroup progressive disease at baseline Absent, N=17, median (95% CI)): 53.14 weeks; CBR Week 24 (FAS subgroup progressive disease at baseline Present, 5/11): 45.5% (5/11); Median time PFS (FAS subgroup progressive disease at baseline Present, N=11, median (95% CI)): 25.14 (12.00, 37.14) weeks; patients without increase in sum of diameters of target lesion at best time point (FAS, 16 of 28 patients): 57.1%; patients with PR or SD as best overall response (FAS, 22 of 28 patients): 78.6%; ORR at Week 60 (FAS, 1 patient with PR at 60 weeks in extension study, 95% CI 0.1%, 18.3%): 3.6%; median OS (Kaplan-Meier): not reached; Forty-eight weeks survival rate (Kaplan-Meier estimate): 96.4%; median PFS (population with PD at baseline (11 patients)): 6.3 months; median PFS (population with PD at baseline (11 patients), 95% CI 12.0, 37.1 weeks): 25.1 weeks; median PFS (population without PD at baseline (17 patients)): 13.3 months; median PFS (population without PD at baseline (17 patients), 95% CI 24.1 weeks, Not calculable): 53.1 weeks
